Where a SMILES comes first, the peptide text is derived from it. The star is where a group is joined. Succinyl(4-O-cholesteryl) = CC(C)CCC[C@@H](C)[C@H]1CC[C@H]2[C@@H]3CC=C4C[C@@H](OC(=O)CCC(=O)*)CC[C@]4(C)[C@H]3CC[C@]12C
Assays:
[1] = test system: RSV A2 virus strain; assay: Mouse RSV A2 challenge protection, lung viral titer by plaque method; type: in vivo, BALB/c mice; settings: for Mean (PFU/g lung): BALB/c mice, tracheal nebulization 1 mg/kg QD for 5 days, lung collected 2 h after final administration on Day 4; for effect on viral titer in lung tissue (in words): mice, tracheal nebulization once daily for 5 days
[2] = test system: RSV A2 virus strain; assay: Cotton rat RSV A2 challenge protection, lung nucleic acid load by RT-qPCR; type: in vivo; settings: cotton rats; for Nucleic acid load RT-qPCR detection results Log10 mean (copy number/gram of lung tissue): tracheal nebulization 1 mg/kg QD for 5 days, lung collected 2 h after final administration on Day 4; for effect on viral titer in lung tissue (in words): tracheal nebulization once daily for 5 days

Molecule	Mean (PFU/g lung) [1] [PFU/g lung]	effect on viral titer in lung tissue (in words) [1]	Nucleic acid load RT-qPCR detection results Log10 mean (copy number/gram of lung tissue) [2]	effect on viral titer in lung tissue (in words) [2]
CC[C@H](C)[C@H](NC(=O)[C@H](CCCCN)NC(=O)[C@H](CCCCN)NC(=O)[C@H](CC(C)C)NC(=O)[C@H](CO)NC(=O)[C@H](CCC(=O)O)NC(=O)[C@H](CCC(=O)O)NC(=O)[C@@H](NC(=O)[C@H](CCCCN)NC(=O)[C@H](CCCCN)NC(=O)[C@H](CC(N)=O)NC(=O)[C@@H](NC(=O)[C@H](CCC(=O)O)NC(=O)[C@H](CCC(=O)O)NC(=O)[C@@H](NC(=O)[C@H](CCCCN)NC(=O)[C@H](CCCCN)NC(=O)[C@H](CC(=O)O)NC(=O)[C@H](Cc1ccccc1)NC(=O)[C@H](CCC(=O)O)NC(=O)[C@H](CC(=O)O)NC(=O)[C@H](Cc1c[nH]c2ccccc12)NC(C)=O)[C@@H](C)CC)C(C)C)[C@@H](C)CC)C(=O)N[C@@H](CCC(=O)O)C(=O)N[C@@H](CCC(=O)O)C(=O)N[C@@H](CO)C(=O)N[C@@H](CC(=O)O)C(=O)N[C@@H](CCCCN)C(=O)N[C@@H](CCCCN)C(=O)N[C@@H](CC(C)C)C(=O)N[C@@H](CCC(=O)O)C(=O)N[C@@H](CCC(=O)O)C(=O)N[C@H](C(=O)N[C@@H](CC(N)=O)C(=O)N[C@@H](C)C(=O)N[C@@H](CCC(=O)O)C(=O)N[C@@H](C)C(=O)N[C@@H](C)C(=O)N[C@@H](C)C(=O)N[C@@H](CCCCN)C(=O)N[C@@H](CCCCNC(=O)CCC(=O)O[C@H]1CC[C@@]2(C)C(=CC[C@H]3[C@@H]4CC[C@H]([C@H](C)CCCC(C)C)[C@@]4(C)CC[C@@H]32)C1)C(N)=O)C(C)C [Compound 40] (Ac-WDEFDKKIEEVNKKIEESLKKIEESDKKLEEVNAEAAAKK(Succinyl(4-O-cholesteryl))-NH2)	5678	significantly reduce the viral titer in lung tissue	7.71 Log10 copy number/gram of lung	significantly reduce the viral titer in lung tissue
Ac-FDEEISQVNEKINQSLAFIRKSDELLHNVNAGKSTTEAAAKK(Succinyl(4-O-cholesteryl))-NH2 [Compound 26]	5015	significantly reduce the viral titer in lung tissue	7.78 Log10 copy number/gram of lung	significantly reduce the viral titer in lung tissue
Ac-WDEFDASISQVNEKINQSLEEIRKSDELLHNVNAGLGSGSGK(Succinyl(4-O-cholesteryl))-NH2 [Compound 27]	9458	significantly reduce the viral titer in lung tissue	8.86 Log10 copy number/gram of lung	significantly reduce the viral titer in lung tissue

Source: patent US20260250325A1, “Antiviral Polypeptide Membrane Fusion Inhibitor, and Preparation Method and Application Thereof” (priority 2025, published 2026)
